Activity calls are given as the source filed them. The calls are words filed in the database; no cut-off is given here.
Columns and labels:
Venturia inaequalis = experiment: Fungicidal activity against Venturia inaequalis assessed as inhibition of mycelial growth measured after 3 to 20 days by agar dilution method; type: functional, organism-based
[1] = tested on: Blumeria graminis f. sp. tritici; experiment: Fungicidal activity against Blumeria graminis f. sp. tritici on wheat leaves assessed as spore formation measured at 0.2 ppm; type: functional
Plasmopara viticola = experiment: Fungicidal activity against Plasmopara viticola on grape (Vitis vinifera, cv.Kousyu) assessed as downy mildew disease control at 200 ppm measured after 5 to 10 days; type: functional
Cytospora ceratosperma = experiment: Fungicidal activity against Valsa ceratosperma assessed as inhibition of mycelial growth measured after 3 to 20 days by agar dilution method; type: functional, organism-based
Diaporthe citri = experiment: Fungicidal activity against Diaporthe citri assessed as inhibition of mycelial growth measured after 3 to 20 days by agar dilution method; type: functional, organism-based
Helicobasidium mompa = experiment: Fungicidal activity against Helicobasidium mompa assessed as inhibition of mycelial growth measured after 3 to 20 days by agar dilution method; type: functional, organism-based
Leveillula taurica = experiment: Fungicidal activity against Leveillula taurica in sweet pepper assessed as powdery mildew disease control measured after 7 to 10 days by pot test; type: functional; conditions: Phyllactinia taurica
[2] = tested on: Blumeria graminis f. sp. tritici; experiment: Fungicidal activity against Blumeria graminis f. sp. tritici on wheat leaves assessed as spore formation measured at 0.8 ppm; type: functional
[3] = tested on: Blumeria graminis f. sp. tritici; experiment: Fungicidal activity against Blumeria graminis f. sp. tritici on wheat (Triticum aestivum, cv. Chihoku) assessed as powdery mildew disease control at 0.8 ppm measured after 5 to 10 days; type: functional
[4] = tested on: Blumeria graminis f. sp. tritici; experiment: Fungicidal activity against Blumeria graminis f. sp. tritici on wheat leaves assessed as rate of appressorium formation measured at 12.5 ppm after 12 hr (reference value: 22.3 +/- 10.2%); type: functional
[5] = tested on: Blumeria graminis f. sp. tritici; experiment: Fungicidal activity against Blumeria graminis f. sp. tritici on wheat (Triticum aestivum, cv. Chihoku) assessed as powdery mildew disease control at 3.1 ppm measured after 5 to 10 days; type: functional
[6] = tested on: Blumeria graminis f. sp. tritici; experiment: Fungicidal activity against Blumeria graminis f. sp. tritici on wheat leaves assessed as rate of appressorium formation measured at 0.2 ppm after 76 hr; type: functional
Pyricularia oryzae = experiment: Fungicidal activity against Magnaporthe oryzae assessed as inhibition of mycelial growth measured after 3 to 20 days by agar dilution method; type: functional, organism-based
[7] = tested on: Blumeria graminis f. sp. tritici; experiment: Fungicidal activity against Blumeria graminis f. sp. tritici on wheat (Triticum aestivum, cv. Chihoku) assessed as powdery mildew disease control at 12.5 ppm measured after 5 to 10 days; type: functional
Cercospora beticola = experiment: Fungicidal activity against Cercospora beticola assessed as inhibition of mycelial growth measured after 3 to 20 days by agar dilution method; type: functional, organism-based
[8] = tested on: Blumeria graminis f. sp. tritici; experiment: Fungicidal activity against Blumeria graminis f. sp. tritici on wheat leaves assessed as colony formation measured at 12.5 ppm; type: functional
[9] = tested on: Blumeria graminis f. sp. tritici; experiment: Fungicidal activity against Blumeria graminis f. sp. tritici on wheat (Triticum aestivum, cv. Chihoku) assessed as powdery mildew disease control at 200 ppm measured after 5 to 10 days; type: functional
[10] = tested on: Blumeria graminis f. sp. tritici; experiment: Fungicidal activity against Blumeria graminis f. sp. tritici on wheat (Triticum aestivum, cv. Chihoku) assessed as powdery mildew disease control at 50 ppm measured after 5 to 10 days; type: functional
[11] = tested on: Blumeria graminis f. sp. tritici; experiment: Fungicidal activity against Blumeria graminis f. sp. tritici on wheat leaves assessed as rate of appressorium formation measured at 3.1 ppm after 168 hr; type: functional
[12] = tested on: Blumeria graminis f. sp. tritici; experiment: Fungicidal activity against Blumeria graminis f. sp. tritici on wheat leaves assessed as rate of appressorium formation measured at 12.5 ppm after 24 hr (reference value: 89.7 +/- 4%); type: functional
Oculimacula yallundae = experiment: Fungicidal activity against Oculimacula yallundae assessed as inhibition of mycelial growth measured after 3 to 20 days by agar dilution method; type: functional, organism-based
Sclerotinia sclerotiorum = experiment: Fungicidal activity against Sclerotinia sclerotiorum assessed as inhibition of mycelial growth measured after 3 to 20 days by agar dilution method; type: functional, organism-based
Podosphaera aphanis = experiment: Fungicidal activity against Podosphaera aphanis var. aphanis in strawberry assessed as powdery mildew disease control measured after 7 to 10 days by pot test; type: functional
Discula theae-sinensis = experiment: Fungicidal activity against Discula theae-sinensis assessed as inhibition of mycelial growth measured after 3 to 20 days by agar dilution method; type: functional, organism-based, Sinodiscula theae-sinensis
Elsinoe ampelina = experiment: Fungicidal activity against Elsinoe ampelina assessed as inhibition of mycelial growth measured after 3 to 20 days by agar dilution method; type: functional, organism-based
Monilinia fructicola [13] = experiment: Fungicidal activity against Monilinia fructicola assessed as number and shape of mitochondria measured by Transmission electron microscopy relative to untreated control; type: functional, organism-based
[14] = tested on: Blumeria graminis f. sp. tritici; experiment: Fungicidal activity against Blumeria graminis f. sp. tritici on wheat leaves assessed as rate of spore germination measured at 12.5 ppm after 6 hr (reference value: 49.8 +/- 17.3%); type: functional
Microdochium nivale = experiment: Fungicidal activity against Microdochium nivale assessed as inhibition of mycelial growth measured after 3 to 20 days by agar dilution method; type: functional, organism-based
Fusarium graminearum [15] = experiment: (§1) Fungicidal activity against Fusarium graminearum assessed as inhibition of mycelial growth measured after 3 to 20 days by agar dilution method; type: functional, organism-based
Monilinia fructicola [16] = experiment: Fungicidal activity against Monilinia fructicola assessed as inhibition of mycelial growth measured after 3 to 20 days by agar dilution method; type: functional, organism-based
[17] = tested on: Blumeria graminis f. sp. tritici; experiment: Fungicidal activity against Blumeria graminis f. sp. tritici in wheat assessed as powdery mildew disease control measured after 7 to 10 days by pot test; type: functional
Penicillium italicum = experiment: Fungicidal activity against Penicillium italicum assessed as inhibition of mycelial growth measured after 3 to 20 days by agar dilution method; type: functional, organism-based
Pestalotia longiseta = experiment: Fungicidal activity against Pestalotia longiseta assessed as inhibition of mycelial growth measured after 3 to 20 days by agar dilution method; type: functional, organism-based, Pestalotiopsis longiseta
[18] = tested on: Blumeria graminis f. sp. tritici; experiment: Fungicidal activity against Blumeria graminis f. sp. tritici on wheat leaves assessed as rate of appressorium formation measured at 12.5 ppm after 6 hr (reference value: 3.5 +/- 2.5%); type: functional
[19] = tested on: Blumeria graminis f. sp. tritici; experiment: Fungicidal activity against Blumeria graminis f. sp. tritici on wheat leaves assessed as rate of appressorium formation measured at 12.5 ppm after 3 hr (reference value: 1.7 +/- 1.4%); type: functional
Fusarium graminearum [20] = experiment: as §1; type: functional, organism-based; remark: listed apart in the source
Alternaria alternata = experiment: Fungicidal activity against Alternaria alternata apple pathotype assessed as inhibition of mycelial growth measured after 3 to 20 days by agar dilution method; type: functional, organism-based
Botrytis cinerea = experiment: Fungicidal activity against Botryotinia fuckeliana assessed as inhibition of mycelial growth measured after 3 to 20 days by agar dilution method; type: functional, organism-based
Botryosphaeria = experiment: Fungicidal activity against Botryosphaeria sp. assessed as inhibition of mycelial growth measured after 3 to 20 days by agar dilution method; type: functional, organism-based
[21] = tested on: Blumeria graminis f. sp. tritici; experiment: Fungicidal activity against Blumeria graminis f. sp. tritici on wheat leaves assessed as spore formation measured at 3.1 ppm; type: functional
Podosphaera fusca = experiment: Fungicidal activity against Sphaerotheca cucurbitae in cucumber assessed as powdery mildew disease control measured after 7 to 10 days by pot test; type: functional
Botrytis squamosa = experiment: Fungicidal activity against Botryotinia squamosa assessed as inhibition of mycelial growth measured after 3 to 20 days by agar dilution method; type: functional, organism-based
Phytophthora infestans = experiment: Fungicidal activity against Phytophthora infestans on tomato (Lycopersicon esculentum, cv. Regina) assessed as late blight disease control at 200 ppm measured after 5 to 10 days; type: functional
[22] = tested on: Blumeria graminis f. sp. tritici; experiment: Fungicidal activity against Blumeria graminis f. sp. tritici on wheat leaves assessed as rate of appressorium formation measured at 0.8 ppm after 168 hr; type: functional

O=C(Cc1ccccc1)N/C(=N\OCC1CC1)c1c(C(F)(F)F)ccc(F)c1F [CYFLUFENAMID]
EC50 (Venturia inaequalis): > 100 ppm | inhibition at 0.2 ppm [1]: 97% | Efficacy (Plasmopara viticola): 0% | EC50 (Cytospora ceratosperma): 8 ppm | EC50 (Diaporthe citri): 6 ppm | EC50 (Helicobasidium mompa): > 100 ppm | MIC (Leveillula taurica): < 0.8 µg/mL | inhibition at 0.8 ppm [2]: 100% | Efficacy [3]: 100% | Activity [4]: 28.1% | Efficacy [5]: 100% | inhibition at 0.2 ppm [6]: 77.6% | EC50 (Pyricularia oryzae): 3 ppm | Efficacy [7]: 100% | EC50 (Cercospora beticola): 0.3 ppm | inhibition at 12.5 ppm [8]: 100% | Efficacy [9]: 100% | Efficacy [10]: 100% | inhibition at 3.1 ppm [11]: 99.9% | Activity [12]: 87.9% | EC50 (Oculimacula yallundae): > 100 ppm | EC50 (Sclerotinia sclerotiorum): 1 ppm | MIC (Podosphaera aphanis): < 0.8 µg/mL | EC50 (Discula theae-sinensis): > 100 ppm | EC50 (Elsinoe ampelina): 5 ppm | Activity (Monilinia fructicola [13]): inactive | Activity [14]: 47.6% | EC50 (Microdochium nivale): 0.3 ppm | EC50 (Fusarium graminearum [15]): > 100 ppm | EC50 (Monilinia fructicola [16]): 0.01 ppm | MIC [17]: < 0.8 µg/mL | EC50 (Penicillium italicum): 7 ppm | EC50 (Pestalotia longiseta): > 100 ppm | Activity [18]: 0.4% | Activity [19]: 0.3% | EC50 (Fusarium graminearum [20]): > 100 ppm | EC50 (Alternaria alternata): > 100 ppm | EC50 (Botrytis cinerea): > 100 ppm | EC50 (Botryosphaeria): 0.07 ppm | inhibition at 3.1 ppm [21]: 100% | MIC (Podosphaera fusca): < 0.8 µg/mL | EC50 (Botrytis squamosa): > 100 ppm | Efficacy (Phytophthora infestans): 0% | inhibition at 0.8 ppm [22]: 99.4%
